1 compound from BindingDB's records for doi:10.1021/jm00045a011 (Eisai, 1994) can be followed below.

The structures appear in SMILES notation.

This assay deals with Arachidonate 5-lipoxygenase (Homo sapiens). As to the kind of experiment: Tested for inhibitory activity against leukotriene B4 (LTB4) production in human neutrophils.

As a reminder, the IC50 is the point on the concentration scale where inhibition reaches its midpoint. Turning to `Cc1c(O)c(C)c2sc(NCc3ccc(S(N)(=O)=O)cc3)nc2c1C` [4-[(6-Hydroxy-4,5,7-trimethyl-benzothiazol-2-ylamino)-methyl]-benzenesulfonamide], the IC50 was 0.03 µM.
